{
  "source": "paper PMC7558026",
  "about": "“Exploring and applying the substrate promiscuity of a C-glycosyltransferase in the chemo-enzymatic synthesis of bioactive C-glycosides” (Nature Communications, 2020)",
  "key": {"[1]": {"target": "T1, SGLT2 (Homo sapiens, UniProt P31639)", "T1 construct": "Human full-length SGLT2 cDNA (NM_003041.3) was synthesized; expressed in transfected cells; host or cells: HEK293, retroviral transduction with pMSCVpuro-SGLT2, puromycin selected", "T1 sequence (P31639 1-672)": "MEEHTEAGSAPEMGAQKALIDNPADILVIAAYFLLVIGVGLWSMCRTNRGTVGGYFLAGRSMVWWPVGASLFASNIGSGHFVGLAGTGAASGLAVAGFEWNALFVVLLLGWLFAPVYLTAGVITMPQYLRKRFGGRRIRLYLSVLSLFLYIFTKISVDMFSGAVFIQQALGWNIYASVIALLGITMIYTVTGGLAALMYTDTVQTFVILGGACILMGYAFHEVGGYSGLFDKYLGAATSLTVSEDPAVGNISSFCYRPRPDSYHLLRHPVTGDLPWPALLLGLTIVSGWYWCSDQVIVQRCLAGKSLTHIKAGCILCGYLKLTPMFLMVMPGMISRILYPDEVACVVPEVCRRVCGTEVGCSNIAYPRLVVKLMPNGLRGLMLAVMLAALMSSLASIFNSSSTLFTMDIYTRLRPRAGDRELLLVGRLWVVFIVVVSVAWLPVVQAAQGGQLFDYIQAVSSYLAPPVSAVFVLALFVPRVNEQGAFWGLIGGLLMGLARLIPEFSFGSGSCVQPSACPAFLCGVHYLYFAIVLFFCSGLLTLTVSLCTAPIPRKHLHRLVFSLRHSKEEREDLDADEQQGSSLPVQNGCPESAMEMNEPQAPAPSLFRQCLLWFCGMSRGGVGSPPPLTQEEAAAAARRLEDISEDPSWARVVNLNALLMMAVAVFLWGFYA", "assay": "1-NBDG uptake in HEK293 cells stably expressing SGLT2", "type": "cell-based"}, "[2]": {"target": "T2, SGLT1 (Homo sapiens, UniProt P13866)", "T2 construct": "The full-length SGLT1 cDNA was obtained by PCR with forward primer; expressed in transfected cells", "T2 sequence (P13866 1-664)": "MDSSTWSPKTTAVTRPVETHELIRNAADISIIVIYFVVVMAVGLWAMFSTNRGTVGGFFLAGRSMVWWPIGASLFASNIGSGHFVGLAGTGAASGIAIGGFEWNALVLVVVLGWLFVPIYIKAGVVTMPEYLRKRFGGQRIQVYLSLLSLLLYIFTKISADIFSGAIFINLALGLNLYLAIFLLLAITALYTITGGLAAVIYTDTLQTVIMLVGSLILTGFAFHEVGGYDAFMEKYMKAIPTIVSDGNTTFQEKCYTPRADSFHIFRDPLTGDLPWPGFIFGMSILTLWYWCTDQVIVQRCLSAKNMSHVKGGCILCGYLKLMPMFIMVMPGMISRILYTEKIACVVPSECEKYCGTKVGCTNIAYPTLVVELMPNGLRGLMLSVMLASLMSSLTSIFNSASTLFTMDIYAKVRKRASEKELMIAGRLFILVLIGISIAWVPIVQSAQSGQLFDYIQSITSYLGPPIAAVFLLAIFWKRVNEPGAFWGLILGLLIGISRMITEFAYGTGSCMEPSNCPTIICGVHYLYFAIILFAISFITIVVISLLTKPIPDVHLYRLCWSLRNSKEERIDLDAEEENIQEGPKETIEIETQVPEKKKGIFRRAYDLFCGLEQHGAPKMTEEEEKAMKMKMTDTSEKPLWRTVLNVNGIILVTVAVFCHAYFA", "assay": "1-NBDG uptake in HEK293 cells stably expressing SGLT1", "type": "cell-based", "conditions": "HEK293, compound at 10 μM; triplicate; read-out: SGLT1 inhibitory rates"}, "[3]": {"tested_on": "ICR mice", "assay": "Oral glucose-tolerance test (OGTT) in normal ICR mice", "type": "in vivo", "conditions": "for OD505nm (blood glucose, GOD assay) in OGTT: individual mice", "procedure": "The hypoglycemic effect of 46a was firstly evaluated by oral glucose-tolerance test (OGTT) in mice with normal blood glucose levels. Male Institute of Cancer Research (ICR) mice weighing 24–26 g were obtained from Beijing Vital River Laboratory Animal Technology Co., Ltd (Beijing, China) and divided into three groups (n = 7–8). […] After 2 h of fasting, blood samples were collected from the tails for determination of baseline values of blood glucose (0 min). The mice were then orally administered glucose (2 g kg^‒1 BW), and blood samples were collected at 15, 30, 60, and 120 min. A glucose oxidase (GOD) assay was used for blood glucose-level measurement. The values of area under the glucose-time curve (AUC) were calculated."}, "[4]": {"tested_on": "alloxan-induced DM mice", "assay": "Hypoglycemic effect in alloxan-induced diabetic mellitus (DM) mice", "type": "in vivo", "conditions": "for OD505nm (nonfasting blood glucose): individual mice", "procedure": "Type 1 diabetes mellitus (T1DM) mice were established by intravenous injection of alloxan tetrahydrate (68 mg kg^‒1 BW). […] Nonfasting blood glucose was kinetically monitored at 1, 2, 4, 6, 8, 24, and 48 h after treatment with 46a."}, "[5]": {"tested_on": "KKAy mice", "assay": "Hypoglycemic effect in T2DM KKAy mice, blood glucose", "type": "in vivo", "conditions": "for blood glucose: individual mice", "procedure": "(§1) To evaluate the hypoglycemic effect of 46a in type 2 diabetes mellitus (T2DM), female KKAy mice weighing 42–48 g were obtained from the Animal Center of the Institute of Laboratory Animal Sciences, Chinese Academy of Medical Sciences and Peking Union Medical College. […] Blood samples were collected at 1, 2, 4, 6, 8, 24, and 48 h after treatment. […] The glucose levels in urine 4 h and 6 h after administration were also determined using a Biosen C-Line Glucose analyzer (EKF Diagnostics, Germany)."}, "[6]": {"tested_on": "KKAy mice", "assay": "Urinary glucose excretion in T2DM KKAy mice", "type": "in vivo", "conditions": "for glucose in urine: 46a 100 mg kg^‒1 or dapagliflozin 5mg/kg, individual mice", "procedure": "as §1"}},
  "note": "Where “and” joins values, the source holds several entries; their conditions need not be identical. Equal entries are not always repeated. Entries after “also recorded” stand apart in the source; their conditions may differ.",
  "data": [
    {"compound": "Cc1ccc(Cc2c(O)cc(O)c(C3OC(CO)C(O)C(O)C3O)c2O)cc1", "note": "(stereo not drawn) [Compound 46a]", "values": [
      {"measurement": "inhibition at 10 µM", "setting": "[1]; HEK293, compound at 10 μM, triplicate, read-out: SGLT2 inhibitory rates", "value": "> 96", "unit": "%"},
      {"measurement": "SGLT2 inhibitory rates", "setting": "[1]; compound at 10 μM, triplicate, 10 µM", "value": 100, "unit": "%"},
      {"measurement": "increase of SGLT2 inhibitory activity compared to the unsubstituted glycoside 38a", "setting": "[1]; from IC50 values, 46a vs 38a", "value": "more than 17 times"},
      {"measurement": "inhibition at 10 µM", "setting": "[2]", "value": 50.4, "unit": "%"},
      {"measurement": "OD505nm (blood glucose, GOD assay) in OGTT", "setting": "[3]; 0 min, ICR mice, oral 46a 100 mg kg^‒1 or dapagliflozin 5 mg kg^‒1", "value": "0.153 and 0.163 and 0.176 and 0.168 and 0.167 and 0.175 and 0.178"},
      {"measurement": "OD505nm (blood glucose, GOD assay) in OGTT", "setting": "[3]; 15 min after glucose 2 g kg^‒1, oral 46a 100 mg kg^‒1 or dapagliflozin 5 mg kg^‒1", "value": "0.178 and 0.123 and 0.205 and 0.183 and 0.193 and 0.203 and 0.189"},
      {"measurement": "OD505nm (blood glucose, GOD assay) in OGTT", "setting": "[3]; 30 min after glucose, same doses", "value": "0.183 and 0.213 and 0.193 and 0.202 and 0.218 and 0.205 and 0.211"},
      {"measurement": "OD505nm (blood glucose, GOD assay) in OGTT", "setting": "[3]; 60 min after glucose, same doses", "value": "0.19 (2×) and 0.208 and 0.2 and 0.178 and 0.187 and 0.202"},
      {"measurement": "OD505nm (blood glucose, GOD assay) in OGTT", "setting": "[3]; 120 min after glucose, same doses", "value": "0.169 and 0.181 and 0.185 and 0.187 and 0.178 (2×) and 0.207"},
      {"measurement": "blood glucose after glucose loading / glucose tolerance (in words)", "setting": "[3]; ICR mice, 100 mg kg^‒1 46a oral", "value": "significantly lowered the peak value of blood glucose after glucose loading; also recorded: enhanced glucose tolerance"},
      {"measurement": "OD505nm (nonfasting blood glucose)", "setting": "[4]; 0h, alloxan-induced DM mice, single dose 46a 100 mg kg^‒1 or dapagliflozin 5 mg kg^‒1", "value": "0.431 and 0.458 and 0.49 and 0.52 and 0.521 and 0.444 and 0.562 and 0.464"},
      {"measurement": "OD505nm (nonfasting blood glucose)", "setting": "[4]; 1h, same doses", "value": "0.26 and 0.308 (2×) and 0.339 and 0.305 and 0.23 and 0.256 and 0.248"},
      {"measurement": "OD505nm (nonfasting blood glucose)", "setting": "[4]; 2h, same doses", "value": "0.231 and 0.293 and 0.455 and 0.311 and 0.26 and 0.191 and 0.29 and 0.211"},
      {"measurement": "OD505nm (nonfasting blood glucose)", "setting": "[4]; 4h, same doses", "value": "0.321 and 0.404 and 0.412 and 0.349 and 0.326 and 0.246 and 0.294 and 0.251"},
      {"measurement": "OD505nm (nonfasting blood glucose)", "setting": "[4]; 8h, same doses", "value": "0.424 and 0.434 and 0.432 and 0.559 and 0.489 and 0.42 and 0.457 and 0.316"},
      {"measurement": "OD505nm (nonfasting blood glucose)", "setting": "[4]; 24h, same doses", "value": "0.5 and 0.59 and 0.679 and 0.688 and 0.606 and 0.51 and 0.507 and 0.483"},
      {"measurement": "OD505nm (nonfasting blood glucose)", "setting": "[4]; 48h, same doses", "value": "0.317 and 0.566 and 0.646 and 0.639 and 0.631 and 0.47 and 0.542 and 0.494"},
      {"measurement": "hypoglycemic activity (in words)", "setting": "[4]; alloxan-induced DM mice, oral single administration", "value": "exhibited obviously hypoglycemic activity"},
      {"measurement": "blood glucose", "setting": "[5]; 0h, KKAy mice, single dose 46a 100 mg kg^‒1 or dapagliflozin 5 mg kg^‒1", "value": "391.7 mg/dL and 463.4 mg/dL and 285.8 mg/dL and 498.6 mg/dL and 457.9 mg/dL and 376.2 mg/dL and 436.2 mg/dL"},
      {"measurement": "blood glucose", "setting": "[5]; 1h, same doses", "value": "205.3 mg/dL and 315 mg/dL and 262 mg/dL and 341.1 mg/dL and 283 mg/dL and 307.9 mg/dL and 329 mg/dL"},
      {"measurement": "blood glucose", "setting": "[5]; 2h, same doses", "value": "212.4 mg/dL and 285.2 mg/dL and 250.2 mg/dL and 371.1 mg/dL and 288 mg/dL and 260.7 mg/dL and 328.6 mg/dL"},
      {"measurement": "blood glucose", "setting": "[5]; 4h, same doses", "value": "205.2 mg/dL and 255.5 mg/dL and 229.1 mg/dL and 299.5 mg/dL and 368.8 mg/dL and 243.8 mg/dL and 201.2 mg/dL"},
      {"measurement": "blood glucose", "setting": "[5]; 6h, same doses", "value": "206.4 mg/dL and 242.8 mg/dL and 220.9 mg/dL and 332.5 mg/dL and 314.8 mg/dL and 301 mg/dL and 171 mg/dL"},
      {"measurement": "blood glucose", "setting": "[5]; 8h, same doses", "value": "215.9 mg/dL and 255.1 mg/dL and 195.2 mg/dL and 297 mg/dL and 255.7 mg/dL and 245.8 mg/dL and 197.4 mg/dL"},
      {"measurement": "blood glucose", "setting": "[5]; 24h, same doses", "value": "269.1 mg/dL and 338.2 mg/dL and 240.2 mg/dL and 308.3 mg/dL and 291.4 mg/dL and 330 mg/dL and 166.4 mg/dL"},
      {"measurement": "blood glucose", "setting": "[5]; 48h, same doses", "value": "250.5 mg/dL and 412.5 mg/dL and 265.3 mg/dL and 242.5 mg/dL and 425.9 mg/dL and 396 mg/dL and 189.5 mg/dL"},
      {"measurement": "blood glucose level (in words)", "setting": "[5]; KKAy mice, single administration, vs control (solvent-treated) group", "value": "decreased at 1 h after 46a administration and was maintained at a lower level for 24 h; also recorded: lowered the blood glucose"},
      {"measurement": "glucose in urine", "setting": "[6]; 4h", "value": "11366 mg/dL and 12692 mg/dL and 12124 mg/dL"},
      {"measurement": "glucose in urine", "setting": "[6]; 6h", "value": "8584 mg/dL and 12278 mg/dL and 11404 mg/dL and 9012 mg/dL"},
      {"measurement": "urinary glucose excretion (in words)", "setting": "[6]; single administration", "value": "elevated urinary glucose excretion; also recorded: promoted urinary glucose excretion"}
    ]}
  ]
}
